Experimental data reported in patent US10959970B2, “Methods of treating hair related conditions” (Nogra Pharma Limited, priority 2009, dated 2021).

Tests used:
[1] = system: human hair matrix keratinocytes; experiment: Ki-67/Tunel fluorescent staining of hair follicles; assay type: cell-based; settings: high doses of compound A; FIG. 4
Procedure: (§1) A Philpott model test system of microdissected organ-cultured hair follicles is used. Hair follicles and skin punches were divided into 4 groups (3 HFs/well) incubated with the test substance Compound ‘A in different concentrations for 6 days. On day 0, microdissection measurements of hair length are conducted. On day 1, the medium is changed and addition of compound A (with measurement of hair length). On day 3, the medium is changed and compound a is added (with measurement of hair length). On day 6, hair length is measured and embedding occurs.
Ki-67/Tunel staining was also conduct on the hair follicles using fluorescent staining.

[2] = system: sebocytes; experiment: GC-MS assay of fatty acids and squalene in lipid extract of sebocytes stimulated with LA and TST; assay type: cell-based, human; settings: sebocyte lipid extract, A 1 mM
Procedure: In order to evaluate in greater detail the inhibition by Compound A of sebogenesis induced by LA and TST, assays were performed on the lipid extract of the sebocytes using gas chromatography coupled with mass spectrometry (GC-MS). The sebocytes were treated by the scheme described for the Nile Red assay. At the end of the treatment, the cells were removed and then the lipid extraction was done by using organic solvents. One part of the extract was used to analyze the fatty acid composition, while the other part was used for the determination of the quantity of squalene, a lipid characteristic of sebum. […] (FIG. 14B)

[3] = system: microdissected organ-cultured hair follicles; experiment: Hair shaft elongation in Philpott model of microdissected organ-cultured hair follicles; assay type: cell-based, human; settings: 6 days, lower dose of compound A, FIG. 1
Procedure: as §1

[4] = system: human primary keratinocytes; experiment: MTT test on human primary keratinocytes; assay type: cell-based; settings: 0.1-1-2 mM, 24 and 48 h, FIG. 7
Procedure: To assess the possible toxic or cytostatic effect of the substances under study, a spectrophotometric test (MTT) was carried out. The human primary keratinocytes, isolated from skin biopsies, were plated in wells of a 24-well plate in suitable medium with addition of antibiotics, calcium, and specific growth factors. At around 70% confluence, the cells were exposed to the presence of Compound A, at various concentrations (0.1-1-2 mM), for 24 and 48 h in suitable medium with addition of antibiotics, calcium, but no growth factors. This culture condition was done for all the subsequent experiments. At the end of the treatment, the MTT test was done.

[5] = system: TNF-alpha mRNA; experiment: Inhibition of TNF-alpha mRNA induction by H2O2 in keratinocytes (Real time RT-PCR); assay type: cell-based, human; settings: H2O2 300 μM, 6 h, FIG. 8
Procedure: Analysis of the inhibition of compound A of the mRNA induction of the proinflammatory cytokine TNF-alpha by H2O2 was carried out by Real time RT-PCR. The keratinocytes were plated in dishes of 6 cm/Ø. At 80% confluence, the cells were treated with H2O2 (300 μM) in presence of Compound A at the three concentrations (0.01-0.1-0.5 mM) for 6 h. At the end of the treatment, the cells were lysed in a lysis buffer and subjected to isolation and subsequent retrotranscription of the RNA. […] (FIG. 8)

[6] = system: IL-6 mRNA; experiment: Inhibition of IL-6 mRNA induction by IFN-γ in keratinocytes (Real time RT-PCR); assay type: cell-based, human; settings: IFN-γ 30 ng/ml, 0.01-0.1-0.5 mM, 6 h, FIG. 9
Procedure: Analysis of the inhibition by compound A of the mRNA induction of the proinflammatory cytokine IL-6 by IFN-γ was done through Real time RT-PCR. The keratinocytes were plated in dishes of 6 cm/Ø.
At 80% confluence, the cells were treated with IFN-γ (30 ng/ml) in presence of compound A at the three concentrations (0.01-0.1-0.5 mM) for 6 h.

[7] = system: K19; experiment: K19 cells in treated hair follicles and skin; assay type: cell-based, human; settings: for K19 cells: lower hair follicle, FIG. 6
Procedure: as §1

[8] = system: IL-6; experiment: Inhibition of IL-6 protein induction by LPS in keratinocytes (ELISA); assay type: cell-based, human; settings: LPS 10 μg/ml, 0.01-0.1-0.5 mM, 24 h, supernatant ELISA, FIG. 11
Procedure: Analysis of the inhibition by Compound A of the protein induction of IL-6 by LPS (lipopolysaccharide) was done with the ELISA kit. The keratinocytes were plated in wells of a 24-well plate. At 80% confluence, the cells were treated with LPS (10 μg/ml) in presence of compound A at the three concentrations (0.01-0.1-0.5 mM) for 24 h. At the end of the treatment, the supernatant was decanted, centrifuged so as to remove any cell detritus, and kept at −80° C. until the time of the analysis. The quantity of IL-6 present in the supernatant was normalized by the protein concentration of the sample itself.

[9] = system: sebocytes; experiment: Nile Red assay of sebogenesis induced by linoleic acid and testosterone in sebocytes; assay type: cell-based, human; settings: for sebogenesis (intracellular lipids, Nile Red) induced by LA and LA+TST: TST (20 nM), 24 h
Procedure: Analysis of the inhibition by (compound A) of sebogenesis induced by treatment with linoleic acid (LA) and with testosterone (TST) was evaluated by spectrofluorimetry, using Nile Red as selective marker of intracellular lipids (Nile Red Assay). The sebocytes were plated in wells of a 24-well plate. Next day, they were deprived of serum (2%) and after 24 h they were stimulated, for another 24 h, with LA (10^-4M), TST (20 nM) in presence or in absence of A (1 mM). At the end of the treatment, the sebocytes were stained with Nile Red. The quantitative analysis was done by spectrofluorimetry, which made it possible to distinguish between neutral lipids and polar lipids based on the different wavelength of excitation and emission. […] (FIG. 13).
Analysis of the inhibition by compound A of sebogenesis induced by treatment with linoleic acid (LA) and with testosterone (TST) was evaluated by spectrofluorimetry, using Nile Red as selective marker of intracellular lipids (Nile Red Assay). The sebocytes were plated in wells of a 24-well plate. Next day, they were deprived of serum (2%) and after 24 h they were stimulated, for another 24 h, with LA (10^-4M), TST (20 nM) in presence or in absence of compound A (1 mM). At the end of the treatment, the sebocytes were stained with Nile Red. The quantitative analysis was done by spectrofluorimetry, which made it possible to distinguish between neutral lipids and polar lipids based on the different wavelength of excitation and emission.

[10] = system: K15; experiment: K15 expression in treated hair follicles and skin; assay type: cell-based, human; settings: FIG. 5
Procedure: as §1

[11] = system: human hair follicle pigmentation; experiment: Fontana-Masson histomorphometry/melanin staining on hair follicle cryosections; assay type: cell-based; settings: FIG. 2
Procedure: as §1

[12] = system: sebocytes; experiment: MTT test on human sebocytes; assay type: cell-based; settings: 0.1-0.5-1-2 mM, 24 and 48 h, FIG. 12
Procedure: To assess the possible toxic or cytostatic effect of the substances under study, a spectrophotometric test (MTT) was carried out. The sebocytes were plated in wells of a 24-well plate in suitable medium with addition of antibiotics, calcium and EGF. At roughly 70% confluence, the cells were exposed to the presence of compound A, in various concentrations (0.1-0.5-1-2 mM), for 24 and 48 h. At the end of the treatment, the MTT test was performed. […] (FIG. 12)

cell vitality (MTT) [12]: no effects on cell vitality
SMILES: CO[C@H](Cc1ccc(NC(C)=O)cc1)C(=O)O [Compound A, N-acetyl-(R)-(−)-3-(4-aminophenyl)-2-methoxypropionic acid]
proliferation and apoptosis of hair matrix keratinocytes (Ki67/Tunel immunohistomorphometry) [1]: stimulates both proliferation and apoptosis
fatty acid assay of lipidogenic stimulus induced by LA and LA+TST ([2]; FIG. 14A): reduced
squalene analysis of lipidogenic stimulus induced by LA and LA+TST ([2]; FIG. 14B): confirmed
hair shaft elongation [3]: stimulates hair shaft elongating
cellular vitality (MTT) [4]: did not show any effect on cellular vitality
expression of the mRNA of TNF-α induced by H2O2 ([5]; higher dose (0.5 mM), effect similar to troglitazone (Tg)): complete inhibition
expression of the mRNA of TNF-α induced by H2O2 ([5]; two higher doses (0.1 mM; 0.5 mM)): able to inhibit
dose dependence of inhibition of IL-6 mRNA expression induced by IFN-γ [6]: does not appear to be dose-dependent
mRNA expression of IL-6 induced by IFN-γ [6]: inhibit the expression of the inflammatory cytokine
K19 cells ([7]; 10× higher concentration): down regulation
K19 cells ([7]; lower concentration): significant upregulation
K19 expression ([7]; skin): no measurable expression
protein expression of IL-6 induced by LPS [8]: inhibit, in dose-dependent manner
sebogenesis (intracellular lipids, Nile Red) induced by LA and LA+TST ([9]; Example 9, LA (10^-4M), A 1 mM, FIG. 13): able to reduce the lipidogenic stimulus
sebogenesis (intracellular lipids, Nile Red) induced by LA and LA+TST ([9]; Example 11, LA (10^-4M), compound A 1 mM, FIG. 15): able to reduce the lipidogenic stimulus
influence of the times of treatment on reduction of the lipidogenic stimulus ([9]; Example 11, Nile Red assay, FIG. 15): No differences were observed
K15 expression ([10]; lower hair follicle, lower doses of compound A): significant upregulation
K15 expression ([10]; treated skin): no measurable expression
human hair follicle pigmentation (melanin staining) [11]: stimulation of human hair follicle pigmentation
